This note sets out measurements from patent publication US8119563B2, “N-substituted azacycles” (FMC Corporation, priority 2003, dated 2012).

The test system of this data set is tobacco budworm (Heliothis virescens [Fabricius]). Kind of data set: surface-treated diet test, insecticidal activity against tobacco budworm. It is filed as in vivo. Set-up: mortality: concentration or dose not given beside the values. The note with it: 0.25 millimoles of candidate insecticide on the surface of the diet, second instar larvae, five-day exposure. In short, it runs like this: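 Second-instar larvae (~5 mg) were held five days at 25° C and 60% RH on artificial diet whose surface carried dried compound (0.25 millimolar standard rate; DMSO serial dilutions for rate series, six replicates each). Readouts: mortality and weight inhibition relative to DMSO-treated controls.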

The mark [1] stands for this setting: compared to total number of insects infested.
The mark [2] stands for this setting: inhibition of insect weight relative to untreated controls.

SMILES strings stand for the structures.

For `CC(C)(C)c1ccc(C(c2ccc(OC(F)(F)F)cc2)C2(O)CC[N+]([O-])(Cc3ccc(Oc4ccccn4)cc3)CC2)cc1` (stereo not drawn) [Compound 335], under setting [1], the “Percent Mortality” value was determined as 100%. For the same molecule, the “Percent Growth Inhibition” value under setting [2] came out at 100%.
Take `[O-][N+]1(Cc2ccc(OCc3ccccc3)cc2)CCC(O)(C(c2ccc(C(F)(F)F)cc2)c2ccc(C(F)(F)F)cc2)CC1` (stereo not drawn) [Compound 393]: under setting [1], the “Percent Mortality” value is 100%. The “Percent Growth Inhibition” value under setting [2] stood at 100%.
As to `OC1(C(c2ccc(OC(F)(F)F)cc2)c2ccc(OC(F)(F)F)cc2)CCN(Cc2ccc(C3OCCCO3)cc2)CC1` [Compound 292], the “Percent Mortality” value under setting [1] is listed as 100%. Besides, the “Percent Growth Inhibition” value under setting [2] worked out at 100%.
Take `OC1(C(c2cccc(F)c2)c2cccc(F)c2)CCN(Cc2ccc(Oc3ncccn3)cc2)CC1` [Compound 8]: under setting [1], the “Percent Mortality” value is on record as 0%. Besides, the “Percent Growth Inhibition” value under setting [2] was 41%.
As to `CC1(C)COC(c2ccc(C[N+]3([O-])CCC(O)(C(c4ccc(OC(F)(F)F)cc4)c4ccc(OC(F)(F)F)cc4)CC3)cc2)OC1` (stereo not drawn) [Compound 358], the “Percent Mortality” value under setting [1] was 100%. Moreover, under setting [2], the “Percent Growth Inhibition” value came out at 100%.
Regarding `FC(F)(F)c1ccc(C(c2ccc(C(F)(F)F)cc2)C2(F)CCN(Cc3ccc(Oc4ncccn4)cc3)CC2)cc1` [Compound 194], under setting [1], the “Percent Mortality” value stood at 100%. Also, the “Percent Growth Inhibition” value under setting [2] amounted to 100%.
For the molecule `NCC1(C(c2ccc(C(F)(F)F)cc2)c2ccc(C(F)(F)F)cc2)CCN(Cc2ccc(OCC3CC3)cc2)CC1` [Compound 450], under setting [1], the “Percent Mortality” value amounted to 50%. Under setting [2], the “Percent Growth Inhibition” value was 100%.
In the case of `[O-][N+]1(Cc2ccc(OCC3CC3)cc2)CCC(O)(C(c2ccc(C(F)(F)F)cc2)c2ccc(C(F)(F)F)cc2)CC1` (stereo not drawn) [Compound 383], the “Percent Mortality” value under setting [1] is on record as 100%. For the same molecule, the “Percent Growth Inhibition” value under setting [2] is 100%.
Consider `OC1(C(c2ccc(C(F)(F)F)cc2)c2cc(Cl)ccc2Cl)CCN(Cc2ccc(Oc3ncccn3)cc2)CC1` (stereo not drawn) [Compound 13], for which the “Percent Mortality” value under setting [1] stood at 100%. Besides, the “Percent Growth Inhibition” value under setting [2] worked out at 100%.
With `OC1(C(c2ccc(OC(F)(F)F)cc2)c2cccc(Cl)c2Cl)CCN(Cc2ccc(Oc3ccccn3)cc2)CC1` (stereo not drawn) [Compound 438], the “Percent Mortality” value under setting [1] was found to be 100%. Moreover, the “Percent Growth Inhibition” value under setting [2] is 100%.
For `COc1ccc(Oc2ccc(CN3CCC(O)(C(c4ccc(OC(F)(F)F)cc4)c4ccc(OC(F)(F)F)cc4)CC3)cc2)nn1` [Compound 274], the “Percent Mortality” value under setting [1] worked out at 100%. Moreover, the “Percent Growth Inhibition” value under setting [2] was found to be 100%.
For the molecule `CCOC(=O)COc1ccc(CN2CCC(O)(C(c3ccc(C(F)(F)F)cc3)c3ccc(C(F)(F)F)cc3)CC2)cc1` [Compound 291], the “Percent Mortality” value under setting [1] is recorded as 17%. The “Percent Growth Inhibition” value under setting [2] worked out at 100%.
On to `OC1(C(c2ccc(OC(F)(F)F)cc2)c2ccc(OC(F)(F)F)cc2)CC[N+](O)(Cc2ccc(Oc3ccccn3)cc2)CC1.[Cl-]` (stereo not drawn) [Compound 497], for which the “Percent Mortality” value under setting [1] came out at 100%. The “Percent Growth Inhibition” value under setting [2] is recorded as 100%.
With `CCCCC(CC)C(=O)[O-].OC1(C(c2ccc(OC(F)(F)F)cc2)c2ccc(OC(F)(F)F)cc2)CC[N+](O)(Cc2ccc(Oc3ccccn3)cc2)CC1` (stereo not drawn) [Compound 499], the “Percent Mortality” value under setting [1] was found to be 100%. In addition, the “Percent Growth Inhibition” value under setting [2] came out at 100%.
On to `OC1(C(c2ccc(OC(F)(F)F)cc2)c2ccccc2Cl)CCN(Cc2ccc(Oc3ccccn3)cc2)CC1` (stereo not drawn) [Compound 437], for which, under setting [1], the “Percent Mortality” value is on record as 100%. Besides, the “Percent Growth Inhibition” value under setting [2] stood at 100%.
In the case of `OC1(C(c2ccc(C(F)(F)F)cc2)c2cccc(Cl)c2)CCN(Cc2ccc(Oc3ncccn3)cc2)CC1` (stereo not drawn) [Compound 14], the “Percent Mortality” value under setting [1] was determined as 100%. Further, the “Percent Growth Inhibition” value under setting [2] is 100%.
Regarding `OC1(C(c2ccc(OC(F)(F)F)cc2)c2ccc(OC(F)(F)F)cc2)CCN(Cc2ccc(OCC=C(Cl)Cl)cc2)CC1` [Compound 293], under setting [1], the “Percent Mortality” value is 100%. Besides, the “Percent Growth Inhibition” value under setting [2] worked out at 100%.
Regarding `OC1(C(c2ccc(OC(F)(F)C(F)C(F)(F)F)cc2)c2ccc(OC(F)(F)C(F)C(F)(F)F)cc2)CCN(Cc2ccc(Oc3ncccn3)cc2)CC1` (stereo not drawn) [Compound 306], the “Percent Mortality” value under setting [1] is reported as 100%. Further, the “Percent Growth Inhibition” value under setting [2] is listed as 100%.
With `Cc1cc(Cl)ccc1C(c1ccc(OC(F)(F)F)cc1)C1(O)CCN(Cc2ccc(Oc3ccccn3)cc2)CC1` (stereo not drawn) [Compound 436], the “Percent Mortality” value under setting [1] is recorded as 100%. The “Percent Growth Inhibition” value under setting [2] is recorded as 100%.
`[O-][N+]1(Cc2ccc(OCC=C(Cl)Cl)cc2)CCC(O)(C(c2ccc(OC(F)(F)F)cc2)c2ccc(OC(F)(F)F)cc2)CC1` (stereo not drawn) [Compound 371]: the “Percent Mortality” value under setting [1] was 100%. Under setting [2], the “Percent Growth Inhibition” value is 100%.
With `Cc1ccc(Oc2ccc(C[N+]3([O-])CCC(O)(C(c4ccc(OC(F)(F)F)cc4)c4ccc(OC(F)(F)F)cc4)CC3)cc2)nc1` (stereo not drawn) [Compound 350], the “Percent Mortality” value under setting [1] amounted to 100%. The “Percent Growth Inhibition” value under setting [2] was determined as 100%.
The mortality is the share of the test organisms that died. Take `OC1(C(c2ccc(OC(F)(F)F)cc2)c2ccc(OC(F)(F)F)cc2)CCN(Cc2ccc(Oc3ccccn3)cc2)CC1` [Compound 21, 4-{bis[4-(trifluoromethoxy)phenyl]methyl}-1-[(4-(2-pyridyloxy)phenyl)methyl]piperidin-4-ol]: the mortality (Heliothis virescens, 120 h, compared to total number of insects infested, read-out: Percent Mortality) stood at 100%. The pest or weed control at 0.25 mmol/well (Heliothis virescens, 120 h, inhibition of insect weight relative to untreated controls, read-out: Percent Growth Inhibition) came out at 100%.
Take `OC1(C(c2ccc(C(F)(F)F)cc2)c2ccc(C(F)(F)F)cc2)CCN(Cc2ccc(C3OCCO3)cc2)CC1` [Compound 264]: the “Percent Mortality” value under setting [1] is 33%. In addition, under setting [2], the “Percent Growth Inhibition” value came to 100%.
Consider `OC(COc1ccccc1Cl)CN1CCC(O)(C(c2ccc(OC(F)(F)F)cc2)c2ccc(OC(F)(F)F)cc2)CC1` (stereo not drawn) [Compound 472], for which, under setting [1], the “Percent Mortality” value is on record as 17%. Moreover, the “Percent Growth Inhibition” value under setting [2] is recorded as 93%.
With `Cc1cc(C(c2ccc(OC(F)(F)F)cc2)C2(O)CC[N+]([O-])(Cc3ccc(Oc4ccccn4)cc3)CC2)ccc1Cl` (stereo not drawn) [Compound 462], the “Percent Mortality” value under setting [1] was 100%. Further, the “Percent Growth Inhibition” value under setting [2] is reported as 100%.
As to `OC1(C(c2cc(F)cc(F)c2)c2cc(F)cc(F)c2)CCN(Cc2ccc(Oc3ncccn3)cc2)CC1` [Compound 10], under setting [1], the “Percent Mortality” value came to 0%. Also, the “Percent Growth Inhibition” value under setting [2] worked out at 50%.
The corresponding values for `[O-][N+]1(Cc2ccc(Oc3ccccc3Cl)cc2)CCC(O)(C(c2ccc(OC(F)(F)F)cc2)c2ccc(OC(F)(F)F)cc2)CC1` (stereo not drawn) [Compound 375] are 100% and 100%.
Turning to `CONC(=O)c1ccc(CN2CCC(O)(C(c3ccc(OC(F)(F)F)cc3)c3ccc(OC(F)(F)F)cc3)CC2)cc1` [Compound 285], the “Percent Mortality” value under setting [1] stood at 100%. For the same molecule, the “Percent Growth Inhibition” value under setting [2] was 100%.
As for `Cc1cccnc1Oc1ccc(C[N+]2([O-])CCC(O)(C(c3ccc(OC(F)(F)F)cc3)c3ccc(OC(F)(F)F)cc3)CC2)cc1` (stereo not drawn) [Compound 349], the “Percent Mortality” value under setting [1] worked out at 100%. Further, under setting [2], the “Percent Growth Inhibition” value is 100%.
As for `CON=C(Cl)c1ccc(CN2CCC(O)(C(c3ccc(OC(F)(F)F)cc3)c3ccc(OC(F)(F)F)cc3)CC2)cc1` [Compound 277], the “Percent Mortality” value under setting [1] is 100%. Further, under setting [2], the “Percent Growth Inhibition” value amounted to 100%.
As for `OC(COc1cccc(Cl)c1)CN1CCC(O)(C(c2ccc(OC(F)(F)F)cc2)c2ccc(OC(F)(F)F)cc2)CC1` (stereo not drawn) [Compound 471], the “Percent Mortality” value under setting [1] was 0%. Further, the “Percent Growth Inhibition” value under setting [2] was 82%.
As to `[O-][N+]1(Cc2ccc(Oc3ncccn3)cc2)CCC(O)(C(c2ccc(OC(F)(F)C(F)C(F)(F)F)cc2)c2ccc(OC(F)(F)C(F)C(F)(F)F)cc2)CC1` (stereo not drawn) [Compound 409], under setting [1], the “Percent Mortality” value was 100%. Further, the “Percent Growth Inhibition” value under setting [2] is listed as 100%.
As for `OC1(C(c2ccc(C(F)(F)F)cc2)c2ccc(C(F)(F)F)cc2)CCN(Cc2ccc(OCc3ccccc3)cc2)CC1` [Compound 316], the “Percent Mortality” value under setting [1] was determined as 67%. Besides, the “Percent Growth Inhibition” value under setting [2] is recorded as 100%.
As to `OC1(C(c2ccc(F)cc2)c2ccc(OC(F)(F)F)cc2)CCN(Cc2ccc(Oc3ccccn3)cc2)CC1` (racemic) [Compound 268], under setting [1], the “Percent Mortality” value is given as 100%. Moreover, under setting [2], the “Percent Growth Inhibition” value is reported as 100%.
In the case of `CCON=Cc1ccc(C[N+]2(O)CCC(O)(C(c3ccc(OC(F)(F)F)cc3)c3ccc(OC(F)(F)F)cc3)CC2)cc1.O=C(O)CC(O)(CC(=O)O)C(=O)[O-]` (stereo not drawn) [Compound 494], the “Percent Mortality” value under setting [1] is 100%. Under setting [2], the “Percent Growth Inhibition” value is recorded as 100%.
For `CCn1nnc(-c2ccc(C[N+]3([O-])CCC(O)(C(c4ccc(C(F)(F)F)cc4)c4ccc(C(F)(F)F)cc4)CC3)cc2)n1` (stereo not drawn) [Compound 113], the “Percent Mortality” value under setting [1] came out at 100%. For the same molecule, the “Percent Growth Inhibition” value under setting [2] turned out to be 100%.
